{"source": "paper PMC11822212", "about": "“High-throughput screening identifies Aurora kinase B as a critical therapeutic target for Merkel cell carcinoma” (Nature Communications, 2025)", "key": {"[1]": {"test_system": "MCC cell lines (WAGA, MKL-1, MKL-2, MCC13, MCC26, UISO)", "assay": "qHTS cell viability, all six MCC cell lines as a group (mean AUC, MCC.avg)", "format": "cell-based, human"}, "MCC13 cells (VN-MCC)": {"test_system": "MCC13 cells (VN-MCC)", "assay": "qHTS cell viability (CellTiter-Glo, 72 h; primary and follow-up small molecule screen)", "format": "cell-based, human"}, "[2]": {"test_system": "control cell lines (HACAT, HEK293T, CRL-7250, NIH-3T3)", "assay": "qHTS cell viability, control cell lines as a group (mean AUC, Control.avg)", "format": "cell-based"}, "WAGA cells (VP-MCC)": {"test_system": "WAGA cells (VP-MCC)", "assay": "qHTS cell viability (CellTiter-Glo, 72 h; primary and follow-up small molecule screen)", "format": "cell-based, human"}, "UISO cells (VN-MCC)": {"test_system": "UISO cells (VN-MCC)", "assay": "qHTS cell viability (CellTiter-Glo, 72 h; primary and follow-up small molecule screen)", "format": "cell-based, human"}, "MKL-2 cells (VP-MCC)": {"test_system": "MKL-2 cells (VP-MCC)", "assay": "qHTS cell viability (CellTiter-Glo, 72 h; primary and follow-up small molecule screen)", "format": "cell-based, human"}, "MCC26 cells (VN-MCC)": {"test_system": "MCC26 cells (VN-MCC)", "assay": "qHTS cell viability (CellTiter-Glo, 72 h; primary and follow-up small molecule screen)", "format": "cell-based, human"}, "MKL-1 cells (VP-MCC)": {"test_system": "MKL-1 cells (VP-MCC)", "assay": "qHTS cell viability (CellTiter-Glo, 72 h; primary and follow-up small molecule screen)", "format": "cell-based, human"}, "[3]": {"test_system": "VN-MCC cell lines (MCC13, MCC26, UISO)", "assay": "qHTS cell viability, VN-MCC cell lines as a group (mean AUC, VN.MCC.avg)", "format": "cell-based, human"}, "HACAT cells": {"test_system": "HACAT cells", "assay": "qHTS cell viability (CellTiter-Glo, 72 h; primary screen), control cell line", "format": "cell-based, human"}, "CRL-7250 cells": {"test_system": "CRL-7250 cells", "assay": "qHTS cell viability (CellTiter-Glo, 72 h; primary screen), control cell line", "format": "cell-based"}, "[4]": {"test_system": "VP-MCC cell lines (WAGA, MKL-1, MKL-2)", "assay": "qHTS cell viability, VP-MCC cell lines as a group (mean AUC, VP.MCC.avg)", "format": "cell-based, human"}, "HEK293T cells": {"test_system": "HEK293T cells", "assay": "qHTS cell viability (CellTiter-Glo, 72 h; primary screen), control cell line", "format": "cell-based, human"}, "[5]": {"test_system": "six MCC cell lines and four control cell lines", "assay": "qHTS cell viability, all 10 cell lines screened", "format": "cell-based"}, "NIH-3T3 cells": {"test_system": "NIH-3T3 cells", "assay": "qHTS cell viability (CellTiter-Glo, 72 h; primary screen), control cell line", "format": "cell-based, mouse"}, "[6]": {"settings": "area under the dose-response curve, MCC13 cells, AUC<450 = reduced viability"}, "[7]": {"settings": "area under the dose-response curve, WAGA cells, AUC<450 = reduced viability"}, "[8]": {"settings": "area under the dose-response curve, UISO cells, AUC<450 = reduced viability"}, "[9]": {"settings": "area under the dose-response curve, MKL-2 cells, AUC<450 = reduced viability"}, "[10]": {"settings": "area under the dose-response curve, MCC26 cells, AUC<450 = reduced viability"}, "[11]": {"settings": "area under the dose-response curve, HACAT control cells, AUC<450 = reduced viability"}, "[12]": {"settings": "area under the dose-response curve, CRL7250 control cells, AUC<450 = reduced viability"}, "[13]": {"settings": "area under the dose-response curve, HEK293T control cells, AUC<450 = reduced viability"}, "[14]": {"settings": "area under the dose-response curve, NIH3T3 control cells, AUC<450 = reduced viability"}}, "note": "Several values for one entry are separate records, joined by “and”; a condition that tells them apart may be missing. Equal entries are not always repeated. Structures can show the parent of a compound that is named as a salt. Where two headings read alike, the source gives them in different places.", "data": [{"molecule": "COc1cc(CCN)c(OC)cc1Br.Cl", "values": [{"measurement": "MCC_Avg_AUC", "setting": "[1]", "value": 400.883}, {"measurement": "MCC13_AUC", "setting": "MCC13 cells (VN-MCC)", "value": 402.391}, {"measurement": "Control_Avg_AUC", "setting": "[2]", "value": 454.231}, {"measurement": "WAGA_AUC", "setting": "WAGA cells (VP-MCC)", "value": "421.438 and 421.439"}, {"measurement": "UISO_AUC", "setting": "UISO cells (VN-MCC)", "value": 386.993}, {"measurement": "MKL2_AUC", "setting": "MKL-2 cells (VP-MCC)", "value": 390.615}, {"measurement": "MCC26_AUC", "setting": "MCC26 cells (VN-MCC)", "value": 407.575}, {"measurement": "MKL1_AUC", "setting": "MKL-1 cells (VP-MCC)", "value": 396.289}, {"measurement": "Control-VN-MCC", "setting": "[3]", "value": 55.2444}, {"measurement": "VN-MCC_Avg_AUC", "setting": "[3]", "value": 398.986}, {"measurement": "HACAT_AUC", "setting": "HACAT cells", "value": 486.493}, {"measurement": "CRL7250_AUC", "setting": "CRL-7250 cells", "value": 439.439}, {"measurement": "Control-VP-MCC", "setting": "[4]", "value": 51.4501}, {"measurement": "VP-MCC_Avg_AUC", "setting": "[4]", "value": 402.781}, {"measurement": "HEK293T_AUC", "setting": "HEK293T cells", "value": 422.838}, {"measurement": "Control-MCC", "setting": "[5]", "value": 53.3472}, {"measurement": "NIH3T3_AUC", "setting": "NIH-3T3 cells", "value": 468.152}]}, {"molecule": "Cc1nc2c([nH]1)c(=O)n(C)c(=O)n2Cc1ccco1", "note": "[Furafylline]", "values": [{"measurement": "MCC13_AUC", "setting": "MCC13 cells (VN-MCC); [6]", "value": 444.774}, {"measurement": "WAGA_AUC", "setting": "WAGA cells (VP-MCC); [7]", "value": 445.554}, {"measurement": "UISO_AUC", "setting": "UISO cells (VN-MCC); [8]", "value": 447.137}, {"measurement": "MKL2_AUC", "setting": "MKL-2 cells (VP-MCC); [9]", "value": 443.745}, {"measurement": "MCC26_AUC", "setting": "MCC26 cells (VN-MCC); [10]", "value": 399.611}, {"measurement": "MKL1_AUC", "setting": "MKL-1 cells (VP-MCC); {}", "value": 414.343}, {"measurement": "HACAT_AUC", "setting": "HACAT cells; [11]", "value": 476.414}, {"measurement": "CRL7250_AUC", "setting": "CRL-7250 cells; [12]", "value": 466.658}, {"measurement": "HEK293T_AUC", "setting": "HEK293T cells; [13]", "value": 497.799}, {"measurement": "NIH3T3_AUC", "setting": "NIH-3T3 cells; [14]", "value": 485.732}]}, {"molecule": "CCc1c2c(nc3ccc(OC(=O)N4CCC(N5CCCCC5)CC4)cc13)-c1cc3c(c(=O)n1C2)COC(=O)[C@]3(O)CC.Cl", "note": "[Irinotecan hydrochloride]", "values": [{"measurement": "Control-VN-MCC", "setting": "[3]", "value": 24.3005}, {"measurement": "Control-VP-MCC", "setting": "[4]", "value": 114.533}, {"measurement": "Control-MCC", "setting": "[5]", "value": 69.4165}]}, {"molecule": "CS(=O)(=O)Oc1ccc2c(NC(N)=O)c(C(=O)c3ccc(Cl)cc3Cl)oc2c1", "note": "[Lirimilast]", "values": [{"measurement": "MCC13_AUC", "setting": "MCC13 cells (VN-MCC)", "value": 475.91}, {"measurement": "WAGA_AUC", "setting": "WAGA cells (VP-MCC)", "value": 295.464}, {"measurement": "UISO_AUC", "setting": "UISO cells (VN-MCC)", "value": 491.115}, {"measurement": "MKL2_AUC", "setting": "MKL-2 cells (VP-MCC)", "value": 353.495}, {"measurement": "MCC26_AUC", "setting": "MCC26 cells (VN-MCC)", "value": 450.578}, {"measurement": "MKL1_AUC", "setting": "MKL-1 cells (VP-MCC)", "value": 416.805}, {"measurement": "HACAT_AUC", "setting": "HACAT cells", "value": 475.167}, {"measurement": "CRL7250_AUC", "setting": "CRL-7250 cells", "value": 477.656}, {"measurement": "HEK293T_AUC", "setting": "HEK293T cells", "value": 473.552}, {"measurement": "NIH3T3_AUC", "setting": "NIH-3T3 cells", "value": 472.494}]}, {"molecule": "CCOC(=O)N1CCC(=C2c3ccc(Cl)cc3CCc3cccnc32)CC1", "note": "[Loratadine]", "values": [{"measurement": "Control-VN-MCC", "setting": "[3]; NPC library, therapeutic window: Control avg AUC minus VN-MCC avg AUC", "value": 36.1824}, {"measurement": "Control-VP-MCC", "setting": "[4]; NPC library, therapeutic window: Control avg AUC minus VP-MCC avg AUC", "value": 67.0216}, {"measurement": "Control-MCC", "setting": "[5]; NPC library, therapeutic window: Control avg AUC minus MCC avg AUC", "value": 51.602}]}, {"molecule": "CCC(=O)C(CC(C)N(C)C)(c1ccccc1)c1ccccc1", "note": "(stereo not drawn) [Methadone hydrochloride]", "values": [{"measurement": "Control-VN-MCC", "setting": "[3]", "value": 44.0199}, {"measurement": "Control-VP-MCC", "setting": "[4]", "value": 55.4471}, {"measurement": "Control-MCC", "setting": "[5]", "value": 49.7335}]}, {"molecule": "CN1CC[C@]23c4c5ccc(O)c4O[C@H]2[C@@H](O)C=C[C@H]3[C@H]1C5", "note": "[Morphine sulfate pentahydrate]", "values": [{"measurement": "Control-MCC", "setting": "[1]", "value": 52.6315}, {"measurement": "Control-VN-MCC", "setting": "[3]", "value": 52.1622}, {"measurement": "Control-VP-MCC", "setting": "[4]", "value": 53.1007}, {"measurement": "Control-MCC", "setting": "[5]", "value": 52.6314}]}, {"molecule": "CCOc1cc(N)c(Cl)cc1C(=O)NCC1CN(Cc2ccc(F)cc2)CCO1", "note": "(stereo not drawn) [Mosapride citrate]", "values": [{"measurement": "MCC13_AUC", "setting": "MCC13 cells (VN-MCC); [6]", "value": 479.818}, {"measurement": "WAGA_AUC", "setting": "WAGA cells (VP-MCC); [7]", "value": 443.892}, {"measurement": "UISO_AUC", "setting": "UISO cells (VN-MCC); [8]", "value": 489.758}, {"measurement": "MKL2_AUC", "setting": "MKL-2 cells (VP-MCC); [9]", "value": 377.067}, {"measurement": "MCC26_AUC", "setting": "MCC26 cells (VN-MCC); [10]", "value": 466.055}, {"measurement": "MKL1_AUC", "setting": "MKL-1 cells (VP-MCC); area under the dose-response curve, MKL-1 cells, AUC<450 = reduced viability", "value": 438.77}, {"measurement": "HACAT_AUC", "setting": "HACAT cells; [11]", "value": 473.779}, {"measurement": "CRL7250_AUC", "setting": "CRL-7250 cells; [12]", "value": 480.736}, {"measurement": "HEK293T_AUC", "setting": "HEK293T cells; [13]", "value": 457.079}, {"measurement": "NIH3T3_AUC", "setting": "NIH-3T3 cells; [14]", "value": 470.089}]}]}
